PubChem BioAssay AID1745844 (Carcinogenic Potency Database (CPDB), 2022)
Activity calls are given as the source filed them. No rule for the calls is given here.

Test system: rodent lifetime carcinogenesis bioassay, tumor incidence TD50
Assay: chronic cancer bioassays in animals – CPDB, compiled studies (AID 1745844)

In the case of NC(=O)NNc1ccccc1, the TD50 (mouse, strain Swiss albino, females, in drinking water, site: liver, lesion: angioma, dosed 79 weeks, study length 79 weeks) is reported as 2670 mg/kg/day (inactive), the TD50 (mouse, strain Swiss albino, females, in drinking water, site: liver, lesion: angiosarcoma, dosed 79 weeks, study length 79 weeks) is reported as 1980 mg/kg/day (inactive) and the TD50 (mouse, strain Swiss albino, females, in drinking water, site: lung, lesion: adenocarcinoma, dosed 79 weeks, study length 79 weeks) is reported as 1250 mg/kg/day. The TD50 (mouse, strain Swiss albino, females, in drinking water, site: lung, lesion: adenoma, dosed 79 weeks, study length 79 weeks) was 150 mg/kg/day, the TD50 (mouse, strain Swiss albino, females, in drinking water, site: lung, lesion: several types, types named in the paper, dosed 79 weeks, study length 79 weeks) was 155 mg/kg/day and the TD50 (mouse, strain Swiss albino, males, in drinking water, site: liver, lesion: angiosarcoma, dosed 79 weeks, study length 79 weeks) was 2000 mg/kg/day (inactive). The TD50 (mouse, strain Swiss albino, males, in drinking water, site: liver, lesion: several types, types named in the paper, dosed 79 weeks, study length 79 weeks) was 1790 mg/kg/day, the TD50 (mouse, strain Swiss albino, males, in drinking water, site: lung, lesion: adenoma, dosed 79 weeks, study length 79 weeks) was 158 mg/kg/day and the TD50 (mouse, strain Swiss albino, males, in drinking water, site: lung, lesion: several types, types named in the paper, dosed 79 weeks, study length 79 weeks) was 176 mg/kg/day.

CC(=O)CN(CC(C)=O)N=O was tested, and the TD50 (rat, strain Fischer 344, females, by gavage, site: liver, lesion: hepatocellular carcinoma, dosed 30 weeks, study length 95 weeks) was 0.684 mg/kg/day, the TD50 (rat, strain Fischer 344, females, in drinking water, site: liver, lesion: hemangiosarcoma, dosed 50 weeks, study length 75 weeks) was 0.892 mg/kg/day and the TD50 (rat, strain Fischer 344, females, in drinking water, site: liver, lesion: hepatocellular carcinoma, dosed 50 weeks, study length 75 weeks) was 0.582 mg/kg/day. The TD50 (rat, strain Fischer 344, females, in drinking water, site: liver, lesion: several types, types named in the paper, dosed 50 weeks, study length 75 weeks) was 0.232 mg/kg/day, the TD50 (rat, strain Fischer 344, females, in drinking water, site: lung, lesion: several types, types named in the paper, dosed 50 weeks, study length 75 weeks) was 0.399 mg/kg/day and the TD50 (rat, strain MRC-Wistar, males, by gavage, site: colorectum, lesion: one or several types, types not named, dosed 104 weeks, study length 104 weeks) was 1.56 mg/kg/day. It also gave a TD50 (rat, strain MRC-Wistar, males, by gavage, site: liver, lesion: one or several types, types not named, dosed 104 weeks, study length 104 weeks) of 1.56 mg/kg/day, a TD50 (rat, strain MRC-Wistar, males, by gavage, site: lung, lesion: one or several types, types not named, dosed 104 weeks, study length 104 weeks) of 1.92 mg/kg/day and a TD50 (rat, strain MRC-Wistar, males, by gavage, site: nasal cavity, lesion: one or several types, types not named, dosed 104 weeks, study length 104 weeks) of 1.56 mg/kg/day. The TD50 (rat, strain MRC-Wistar, males, by gavage, site: prostate, lesion: carcinoma, dosed 74 weeks, study length 74 weeks) was 1.53 mg/kg/day, the TD50 (rat, strain MRC-Wistar, males, by gavage, site: prostate, lesion: squamous-cell carcinoma, keratinized, dosed 104 weeks, study length 104 weeks) was 2.41 mg/kg/day and the TD50 (rat, strain MRC-Wistar, males, by gavage, site: thyroid gland, lesion: one or several types, types not named, dosed 104 weeks, study length 104 weeks) was 3.16 mg/kg/day. The TD50 (rat, strain MRC-Wistar, males, by gavage, site: urethra, lesion: several types, types named in the paper, dosed 104 weeks, study length 104 weeks) was 0.891 mg/kg/day, the TD50 (rat, strain MRC, females, by gavage, site: any site (literature study), lesion: one or several types, types not named, dosed 73 weeks, study length 77 weeks) was 0.171 mg/kg/day and the TD50 (rat, strain MRC, females, by gavage, site: liver, lesion: several types, types named in the paper, dosed 73 weeks, study length 77 weeks) was 0.283 mg/kg/day. For the same molecule, the TD50 (rat, strain MRC, females, by gavage, site: lung, lesion: adenoma, dosed 73 weeks, study length 77 weeks) was 14 mg/kg/day, the TD50 (rat, strain MRC, females, by gavage, site: nasal and paranasal cavity, lesion: several types, types named in the paper, dosed 73 weeks, study length 77 weeks) was 14 mg/kg/day and the TD50 (rat, strain MRC, females, by gavage, site: thyroid gland, lesion: several types, types named in the paper, dosed 73 weeks, study length 77 weeks) was 1.39 mg/kg/day. The TD50 (rat, strain MRC, males, by gavage, site: any site (literature study), lesion: one or several types, types not named, dosed 72 weeks, study length 80 weeks) was 0.0995 mg/kg/day, the TD50 (rat, strain MRC, males, by gavage, site: colon, lesion: several types, types named in the paper, dosed 72 weeks, study length 80 weeks) was 1.6 mg/kg/day and the TD50 (rat, strain MRC, males, by gavage, site: liver, lesion: several types, types named in the paper, dosed 72 weeks, study length 80 weeks) was 0.989 mg/kg/day. It also gave a TD50 (rat, strain MRC, males, by gavage, site: lung, lesion: several types, types named in the paper, dosed 72 weeks, study length 80 weeks) of 1.1 mg/kg/day, a TD50 (rat, strain MRC, males, by gavage, site: nasal and paranasal cavity, lesion: several types, types named in the paper, dosed 72 weeks, study length 80 weeks) of 1.23 mg/kg/day and a TD50 (rat, strain MRC, males, by gavage, site: prostate, lesion: squamous-cell carcinoma, dosed 72 weeks, study length 80 weeks) of 2.21 mg/kg/day. It also gave a TD50 (rat, strain MRC, males, by gavage, site: thyroid gland, lesion: several types, types named in the paper, dosed 72 weeks, study length 80 weeks) of 0.968 mg/kg/day and a TD50 (rat, strain MRC, males, by gavage, site: urethra, lesion: papilloma, dosed 72 weeks, study length 80 weeks) of 0.878 mg/kg/day.

In the case of CC1CN(N=O)CC(C)N1C (stereo not given), the TD50 (hamster, strain Syrian Golden, males, by gavage, site: forestomach, lesion: papilloma, dosed 46 weeks, study length 69 weeks) is reported as 1.32 mg/kg/day, the TD50 (hamster, strain Syrian Golden, males, by gavage, site: liver, lesion: angiosarcoma, dosed 46 weeks, study length 69 weeks) is reported as 6.18 mg/kg/day and the TD50 (hamster, strain Syrian Golden, males, by gavage, site: lung, lesion: adenoma, dosed 46 weeks, study length 69 weeks) is reported as 1.73 mg/kg/day. For the same molecule, the TD50 (hamster, strain Syrian Golden, males, by gavage, site: lung, lesion: carcinoma, dosed 46 weeks, study length 69 weeks) was 3.2 mg/kg/day and the TD50 (rat, strain Fischer 344, females, in drinking water, site: nasal cavity, lesion: olfactory carcinoma, dosed 30 weeks, study length 85 weeks) was 0.151 mg/kg/day.
